# Test results published in US9936700B2, “Substituted quinoxaline derivatives as pest control agent” (BAYER CROPSCIENCE AKTIENGESELLSCHAFT, priority 2013, dated 2018).
# Where two headings read alike, the source gives them in different places.
# How the values were obtained:
# Nilaparvata lugens = Nilaparvata lugens spray test (solvent dimethylformamide, 7 days); format: in vivo; settings: rice plants, after 7 days
# Protocol: Nilaparvata lugens—spray test
# If the addition of ammonium salts or/and penetrants is required, these are each added in a concentration of 1000 ppm to the formulation solution.
# After 7 days, the efficacy in % is determined.
# Bemisia tabaci = Bemisia tabaci spray test; format: in vivo; settings: 100 ppm, cotton plants, after 8 days
# Protocol: Bemisia Tabaci—Spray Test
# (§1) • Solvent: 7 parts by weight of dimethylformamide • Emulsifier: alkylaryl polyglycol ether
# (§2) To produce further test concentrations, the preparation is diluted with emulsifier-containing water. If the addition of ammonium salts or/and penetrants is required, these are each added in a concentration of 1000 ppm to the formulation solution.
# After 8 days, the efficacy in % is determined. 100% means that all the whiteflies have been killed; 0% means that none of the whiteflies have been killed.
# Tetranychus urticae = Tetranychus urticae spray test, OP-resistant (TETRUR); format: in vivo; settings: 500 g/ha, bean leaf discs, after 6 days
# Protocol: Tetranychus urticae—spray test, OP-resistant (TETRUR)
# (§3) • Solvent: 78.0 parts by weight of acetone • 1.5 parts by weight of dimethylformamide • Emulsifier: 0.5 part by weight of alkylaryl polyglycol ether
# After 6 days, the efficacy in % is determined. 100% means that all the spider mites have been killed; 0% means that no spider mites have been killed.
# [1] = log P by reversed-phase HPLC (EEC Directive 79/831 Annex V.A8); format: physicochemical; settings: for chromatographic logP: reversed-phase C18 HPLC column
# Source text: NMR data and log P values: log P (HCOOH)=log P[a] log P (neutral)=log P[b]
# ^[a] […] Called log P (HCOOH) in the table.
# ^[b] […] Called log P (neutral) in the table.
# Phaedon cochleariae = Phaedon cochleariae spray test (PHAECO); format: in vivo; settings: 500 g/ha, Chinese cabbage leaf discs, after 7 days
# Protocol: Phaedon cochleariae—spray test (PHAECO)
# as §3
# After 7 days, the efficacy in % is determined. 100% means that all the beetle larvae have been killed; 0% means that no beetle larvae have been killed.
# Spodoptera frugiperda = Spodoptera frugiperda spray test (SPODFR); format: in vivo; settings: 500 g/ha, maize leaf discs, after 7 days
# Protocol: Spodoptera frugiperda—spray test (SPODFR)
# • Solvent: 78.0 parts by weight of acetone • 1.5 parts by weight of dimethylformamide • Emulsifier: 0.5 parts by weight of alkylaryl polyglycol ether
# After 7 days, the efficacy in % is determined. 100% means that all the caterpillars have been killed; 0% means that no caterpillars have been killed.
# Aphis gossypii = Aphis gossypii spray test; format: in vivo; settings: cotton plants, after 6 days
# Protocol: Aphis gossypii—spray test
# as §1, §2
# After 6 days, the kill in % is determined. 100% means that all the aphids have been killed; 0% means that no aphids have been killed.
# Myzus persicae = Myzus persicae spray test (MYZUPE); format: in vivo; settings: Chinese cabbage leaf discs, after 6 days
# Protocol: Myzus persicae—spray test (MYZUPE)
# • Solvent: 78 parts by weight of acetone • 1.5 parts by weight of dimethylformamide • Emulsifier: 0.5 part by weight of alkylaryl polyglycol ether
# After 6 days, the efficacy in % is determined. 100% means that all the aphids have been killed; 0% means that no aphids have been killed.
# Boophilus microplus = Boophilus microplus test (BOOPMI injection); format: in vivo; settings: 20 μg/animal, injection into the abdomen, after 7 days
# Protocol: Boophilus microplus test (BOOPMI injection) • Solvent: dimethyl sulfoxide To produce a suitable preparation of active compound, 10 mg of active compound are mixed with 0.5 ml of solvent and the concentrate is diluted with solvent to the desired concentration. The active compound solution is injected into the abdomen (Boophilus microplus), and the animals are transferred into dishes and stored in a climate-controlled room. Efficacy is assessed after 7 days by laying of fertile eggs. Eggs which are not visibly fertile are stored in a climate-controlled cabinet until the larvae hatch after about 42 days.
# [2] = system: Nippostrongylus brasiliensis; settings: 10 ppm, adult worms, 37° C., OD at 405 nm versus negative control
# Protocol: Nippostrongylus brasiliensis test (NIPOBR)
# Test method for in vitro experiments with Nippostrongylus brasiliensis
# Adult Nippostrongylus brasiliensis is isolated from the small intestine of female Wistar rats and transferred into buffer solution containing 100 U/ml penicillin, 0.1 mg/ml streptomycin and 2.5 μg/ml amphotericin B.
# The incubation of the worms (both sexes) is carried out in 1.0 ml of the medium also used for determining the acetylcholinesterase activity.
# The compounds are dissolved in DMSO and added to the incubation medium such that final concentrations of 10 and 1 μg/ml, respectively, are present. The controls contain only DMSO.
# Incubation is carried out at 37° C. and 5% CO2.
# The enzyme determination is carried out using an aliquot of the medium. The AChE to be measured cleaves the substrate acetylthiocholine iodide (which is present as the iodide salt) into the products acetate and thiocholine.
# In the subsequent reaction, thiocholine forms, with dithionitrobenzoic acid (DTNB, Ellman's reagent), a yellow dye (thionitrobenzoate).
# The intensity of the color (=activity of AChE) is determined via the optical density (OD) photometrically at 405 nm and compared to the OD of the negative control.
# Haemonchus contortus = Haemonchus contortus test (HAEMCO); format: in vivo; settings: after 5 days
# Source text: Haemonchus contortus-test ([…]) • Solvent: dimethyl sulfoxide […] Vessels containing the active compound preparation of the desired concentration are populated with about 40 larvae of the red stomach worm (Haemonchus contortus).
# Cooperia curticei = Cooperia curticei test (COOPCU); format: in vivo; settings: after 5 days
# Protocol: Cooperia curticei test (COOPCU)
# • Solvent: dimethyl sulfoxide
# To produce a suitable preparation of active compound, 10 mg of active compound are mixed with 0.5 ml of dimethyl sulfoxide and the concentrate is diluted with “Ringer's solution” to the desired concentration.
# Vessels containing the active compound preparation of the desired concentration are populated with about 40 nematode larvae (Cooperia curticei).
# After 5 days, the kill in % is determined. 100% means that all the larvae have been killed; 0% means that none of the larvae have been killed.
# [3] = acidic range, pH 2.7, 0.1% aqueous formic acid/acetonitrile, read-out: logP [a] = log P (HCOOH)
# [4] = acidic range, pH 2.7, 0.1% aqueous formic acid/acetonitrile
# [5] = neutral range, pH 7.8, aqueous ammonium hydrogencarbonate/acetonitrile
smiles,measurement,setting,value
CCc1cnccc1-c1cnc2cc(C(F)(F)F)ccc2n1 [Example I-26],efficacy (planthoppers killed),Nilaparvata lugens; 100 ppm,80%
same,efficacy (whiteflies killed),Bemisia tabaci,96%
same,efficacy (spider mites killed),Tetranychus urticae,90%
same,logP [a] = log P (HCOOH),[1]; pH 2.7,2.53
same,logP [b] = log P (neutral),[1]; pH 7.8,3.28
CC[S+]([O-])c1ccccc1-c1cnc2cc(C(F)(F)F)ccc2n1 (stereo not drawn) [Example I-15],efficacy (beetle larvae killed),Phaedon cochleariae,83%
same,efficacy (whiteflies killed),Bemisia tabaci,90%
same,efficacy (caterpillars killed),Spodoptera frugiperda,100%
same,efficacy (spider mites killed),Tetranychus urticae,100%
same,logP [a] = log P (HCOOH),[1]; pH 2.7,2.79
same,logP [b] = log P (neutral),[1]; pH 7.8,2.78
"CCc1cnccc1-c1cnc2cc3c(cc2n1)OC(F)(F)O3 [Example I-1, 6-(3-Ethylpyridin-4-yl)-2,2-difluoro[1,3]dioxolo[4,5-g]quinoxaline]",efficacy (kill of aphids),Aphis gossypii; 20 ppm,85%
same,efficacy (aphids killed),Myzus persicae; 500 g/ha,90%
same,efficacy (planthoppers killed),Nilaparvata lugens; 20 ppm,100%
same,efficacy (spider mites killed),Tetranychus urticae,100%
same,chromatographic logP,[1]; [3],2.34
same,chromatographic logP,"[1]; neutral range, pH 7.8, aqueous ammonium hydrogencarbonate/acetonitrile, read-out: logP [b] = log P (neutral)",3.23
CCSc1ccccc1-c1cnc2ccc(C(F)(F)F)cc2n1 [Example I-36],efficacy (laying of fertile eggs),Boophilus microplus,90%
same,efficacy (aphids killed),Myzus persicae; 500 g/ha,90%
same,efficacy (beetle larvae killed),Phaedon cochleariae,83%
same,efficacy (spider mites killed),Tetranychus urticae,90%
same,logP [a] = log P (HCOOH),[1]; pH 2.7,4.79
CCSc1ccccc1-c1cnc2cc3c(cc2n1)OC(F)(F)O3 [Example I-34],efficacy (beetle larvae killed),Phaedon cochleariae,100%
same,efficacy (spider mites killed),Tetranychus urticae,90%
same,logP [a] = log P (HCOOH),[1]; pH 2.7,4.73
FC(F)(F)c1ccc2ncc(-c3ccncc3)nc2c1 [Example I-9],efficacy (category of AChE inhibition),[2],100% (100% (>84-100% inhibition))
same,efficacy (kill of aphids),Aphis gossypii; 100 ppm,85%
same,efficacy (aphids killed),Myzus persicae; 500 g/ha,90%
same,efficacy (beetle larvae killed),Phaedon cochleariae,100%
same,efficacy (kill of larvae),Haemonchus contortus; 100 ppm,100%
same,efficacy (kill of larvae),Cooperia curticei; 100 ppm,100%
same,logP [a] = log P (HCOOH),[1]; [4],2.13
same,logP [b] = log P (neutral),[1]; [5],2.75
COc1cnccc1-c1cnc2cc(C(F)(F)F)ccc2n1 [Example I-11],efficacy (kill of aphids),Aphis gossypii; 100 ppm,100%
same,efficacy (aphids killed),Myzus persicae; 750 g/ha,90%
same,efficacy (planthoppers killed),Nilaparvata lugens; 100 ppm,90%
same,efficacy (whiteflies killed),Bemisia tabaci,100%
same,logP [a] = log P (HCOOH),[1]; pH 2.7,2.59
Cc1cnccc1-c1cnc2cc3c(cc2n1)OC(F)(F)O3 [Example I-32],efficacy (kill of aphids),Aphis gossypii; 100 ppm,90%
same,efficacy (aphids killed),Myzus persicae; 500 g/ha,90%
same,efficacy (kill of larvae),Haemonchus contortus; 20 ppm,80%
same,efficacy (kill of larvae),Cooperia curticei; 20 ppm,80%
same,logP [a] = log P (HCOOH),[1]; pH 2.7,1.99
same,logP [b] = log P (neutral),[1]; pH 7.8,2.85
FC(F)(F)c1ccc2nc(-c3cccnc3)cnc2c1 [Example I-8],efficacy (category of AChE inhibition),[2],84% (84% (60-84% inhibition))
same,efficacy (kill of larvae),Haemonchus contortus; 100 ppm,100%
same,efficacy (kill of larvae),Cooperia curticei; 100 ppm,100%
same,logP [a] = log P (HCOOH),[1]; [4],2.46
"FC1(F)Oc2cc3nc(Cl)c(-c4ccc(Cl)cc4)nc3cc2O1 [Example I-4, 6-Chloro-7-(4-chlorophenyl)-2,2-difluoro[1,3]dioxolo[4,5-g]quinoxaline]",efficacy (kill of larvae),Haemonchus contortus; 20 ppm,80%
same,chromatographic logP,[1]; [3],5.27
CCS(=O)(=O)c1ccccc1-c1cnc2cc(Cl)ccc2n1 [Example I-29],efficacy (caterpillars killed),Spodoptera frugiperda,83%
same,logP [a] = log P (HCOOH),[1]; pH 2.7,2.81
same,logP [b] = log P (neutral),[1]; pH 7.8,2.82
Clc1ccc2nc(-c3cccnc3)cnc2c1 [Example I-40],efficacy (kill of larvae),Cooperia curticei; 20 ppm,90%
same,logP [a] = log P (HCOOH),[1]; [4],2.01
same,logP [b] = log P (neutral),[1]; [5],2.43
CCSc1ccccc1-c1cnc2cc(C(F)(F)F)ccc2n1 [Example I-14],efficacy (beetle larvae killed),Phaedon cochleariae,100%
same,efficacy (caterpillars killed),Spodoptera frugiperda,100%
same,efficacy (spider mites killed),Tetranychus urticae,100%
same,logP [a] = log P (HCOOH),[1]; pH 2.7,4.80
same,logP [b] = log P (neutral),[1]; pH 7.8,4.78
Cc1cnccc1-c1cnc2ccc(C(F)(F)F)cc2n1 [Example I-30],efficacy (kill of aphids),Aphis gossypii; 100 ppm,100%
same,efficacy (planthoppers killed),Nilaparvata lugens; 100 ppm,80%
same,efficacy (whiteflies killed),Bemisia tabaci,100%
same,logP [a] = log P (HCOOH),[1]; pH 2.7,2.12
same,logP [b] = log P (neutral),[1]; pH 7.8,2.89
